In the series the test system is normotensive Wistar rats. Kind of series: Invasive blood pressure measurement in anesthetized rats, i.v. administration. Type of series: in vivo, rat. As to the method: Male Wistar rats with a body weight (BW) of 300-450 g were used as experimental animals. The rats are anesthetized immediately before the experiment with 50 mg/kg pentobarbital Na intraperitoneally (i.p.) or 70 mg/kg inactin i.v. PE tubes are tied into the carotid artery and femoral vein.
To maintain the blood pressure and to prevent formation of thrombi in the PE tubes of the blood vessels, each hour 2.5 ml of heparinized 0.9% strength NaCl solution are infused through the femoral vein and 1.2 ml through the carotid artery.
The arterial blood pressure is measured invasively using a PONEMAH hemodynamic analyzer (HSE, March, Germany). Via the tube in the carotid artery, the arterial blood pressure is mechanoelectrically converted in a Statham transducer (ISOTEC), amplified in a Plugsys (DBA module, type 660), digitized in an A/D converter and input into the PC memory over defined time intervals. The values in the memory are then treated with an adapted algorithm in order to establish the blood pressure parameters to be calculated for heart rate, systolic, diastolic and mean blood pressure.
The ergoline derivatives are administered i.v. through the femoral vein as 5 percent EtOH/NaCl (0.9%) solution, 1 ml/kg in a dosage of 0.5 mg/kg test substance.

[1] abbreviates: assessment class of duration, 0.5 mg/kg i.v., Table 1.2.
[2] abbreviates: assessment class of pressure fall, 0.5 mg/kg i.v., Table 1.2.
Where [3] appears, read: change shown as arrow, Wistar rats, 0.5 mg/kg i.v., Table 1.2.
The mark [4] stands for this setting: duration of blood pressure effect, 0.5 mg/kg i.v., Table 1.2.
The mark [5] stands for this setting: effect (fall) on arterial blood pressure, Wistar rats, 0.5 mg/kg i.v., Table 1.2.
Setting [6] is: assessment class of duration, 0.5 mg/kg i.v., Table 1.1.
Setting [7] is: assessment class of pressure fall, 0.5 mg/kg i.v., Table 1.1.
Setting [8] is: change shown as arrow, Wistar rats, 0.5 mg/kg i.v., Table 1.1.
[9] abbreviates: duration of blood pressure effect, Wistar rats, 0.5 mg/kg i.v., Table 1.1.
The mark [10] stands for this setting: effect (fall) on arterial blood pressure, anesthetized Wistar rats, 0.5 mg/kg i.v., Table 1.1.

The values below come from patent US6358967B1, “Ergoline amine derivatives with blood pressure lowering effect” (priority 1998, dated 2002).

Structures are written as SMILES. Counter-ions that a name gives are not always drawn.

For the molecule `CN1CC(CNC(=O)c2ccc(SSc3ccc(C(=O)NC4CCC(N)CC4)cn3)nc2)CC2c3cccc4[nH]cc(c34)CC21.O=C(O)C(F)(F)F.O=C(O)C(F)(F)F` (stereo not drawn) [Substance 9703155], under setting [1], the “Effect pressure/duration: duration” value is reported as “↓↓↓ (> 30 min)”. Under setting [2], the “Effect pressure/duration: pressure” value is “↓↓ (to 30%)”. The Heart rate entry under setting [3] is recorded as “→”. Under setting [4], the Duration entry is reported as “ca 60 min”. Further, under setting [5], the “Diastol. pressure” value was 25.9%, the Mean pressure stood at 26.9% and the “Systol. pressure” value was 24.7%.
For `CN1CC(CNC(=O)C(F)(F)C(F)(F)C(=O)NC2CCC(N)CC2)CC2c3cccc4[nH]cc(c34)CC21.O=C(O)C(F)(F)F.O=C(O)C(F)(F)F` (stereo not drawn) [Substance 9703157], the “Effect pressure/duration: duration” value under setting [1] is “↓↓ (up to 30 min)”. Moreover, the “Effect pressure/duration: pressure” value under setting [2] was “↓↓↓ (> 30%)”. Moreover, the Heart rate entry under setting [3] is listed as “→”. For the same molecule, under setting [4], the Duration amounted to 30 min. Moreover, under setting [5], the “Diastol. pressure” value is on record as 49.6%, the Mean pressure stood at 48.8% and the “Systol. pressure” value came out at 46.6%.
Consider `CN1CC(CNC(=O)c2ccc(C(=O)NC3CCC(N)CC3)cc2)CC2c3cccc4[nH]cc(c34)CC21.O=C(O)C(F)(F)F.O=C(O)C(F)(F)F` (stereo not drawn) [Substance 9703112], for which the “Effect pressure/duration: duration” value under setting [6] is on record as “↓↓/↓↓ (up to 30 min)”. Moreover, the “Effect pressure/duration: pressure” value under setting [7] was “↓↓/↓↓ (to 30%)”. Moreover, the Heart rate entry under setting [8] is “→”. For the same molecule, under setting [9], the Duration came to 18 min. In addition, under setting [10], the Diastol. pressure was 31.7%, the Mean pressure was found to be 29.2% and the Systol. pressure came out at 25.2%.
As for `O=C(O)C(F)(F)F` [TFA (equimolar), trifluoroacetic acid, reference compound], the “Effect pressure/duration: duration” value under setting [6] is reported as “(↓)/(↓) (< 5 min)”. Also, under setting [7], the “Effect pressure/duration: pressure” value is recorded as “(↓)/(↓) (to 10%)”. Also, the Heart rate entry under setting [8] is “→”. Under setting [9], this molecule showed a Duration of over 1 min. Under setting [10], this molecule returned a Diastol. pressure of 5.1%, a Mean pressure of 4.6% and a Systol. pressure of 4.3%.
Turning to `CN1CC(CNC(=O)CCCCC(=O)NCc2cccc(CN)c2)CC2c3cccc4[nH]cc(c34)CC21.O=C(O)C(F)(F)F.O=C(O)C(F)(F)F` (stereo not drawn) [Substance 9703123], for the setting “rat, in vivo, iv, 0.5 mg/kg”, the Diastol. pressure turned out to be 44.3%, the Duration is listed as 7 min, the “Effect pressure/duration: duration” value was “↓↓↓/↓ (key: (↓): < 5 min; ↓: up to 10 min; ↓↓: up to 30 min; ↓↓↓: >30 min)” and the “Effect pressure/duration: pressure” value is “↓↓↓/↓ (key: →: no effect to 5%; (↓): to 10%; ↓: to 20%; ↓↓: to 30%; ↓↓↓: >30%)”. Besides, for the setting “rat, in vivo, iv, 0.5 mg/kg”, the Heart rate entry is listed as “→”, the Mean pressure was determined as 43.4% and the Systol. pressure came to 38.0%.
On to `CN1CC(CNC(=O)c2c(F)c(F)c(F)c(F)c2C(=O)NC2CCC(N)CC2)CC2c3cccc4[nH]cc(c34)CC21.O=C(O)C(F)(F)F.O=C(O)C(F)(F)F` (stereo not drawn) [Substance 9703156], for which the “Effect pressure/duration: duration” value under setting [1] is “↓↓ (up to 30 min)”. In addition, the “Effect pressure/duration: pressure” value under setting [2] is “↓↓↓ (> 30%)”. Also, under setting [3], the Heart rate entry is “→”. This molecule showed a Duration under setting [4] of 13 min. Also, under setting [5], the “Diastol. pressure” value is recorded as 43.4%, the Mean pressure is 38.6% and the “Systol. pressure” value amounted to 33.4%.
In the case of `CN1C[C@H](C(N)=O)CC2c3cccc4[nH]cc(c34)C[C@H]21` (stereo partly drawn) [Dihydrolysergamide, reference compound], under setting [6], the “Effect pressure/duration: duration” value is reported as “(↓)/(↓) (< 5 min)”. Also, the “Effect pressure/duration: pressure” value under setting [7] is on record as “(↓)/(↓) (to 10%)”. Under setting [8], the Heart rate result was “→”. Moreover, the Duration under setting [9] was found to be 5 min. Under setting [10], this molecule had a Diastol. pressure of 7.1%, a Mean pressure of 8.0% and a Systol. pressure of 8.0%.
On to `Cc1nc(C)c(C(=O)NC2CCC(N)CC2)cc1C(=O)NCC1CC2c3cccc4[nH]cc(c34)CC2N(C)C1.O=C(O)C(F)(F)F.O=C(O)C(F)(F)F` (stereo not drawn) [Substance 9703137], for which the “Effect pressure/duration: duration” value under setting [6] is reported as “↓↓↓/↓↓↓ (>30 min)”. Moreover, under setting [7], the “Effect pressure/duration: pressure” value is recorded as “↓↓↓/↓↓↓ (>30%)”. In addition, under setting [8], the Heart rate entry is on record as “→”. The Duration entry under setting [9] is reported as “ca 95 min”. For the same molecule, under setting [10], the Diastol. pressure turned out to be 64.8%, the Mean pressure amounted to 60.2% and the Systol. pressure is given as 56.5%.
For `CN1CC(CNC(=O)c2ccc(C(=O)NCCCN3CCN(CCCN)CC3)cc2)CC2c3cccc4[nH]cc(c34)CC21.O=C(O)C(F)(F)F.O=C(O)C(F)(F)F.O=C(O)C(F)(F)F.O=C(O)C(F)(F)F` (stereo not drawn) [Substance 9703125], for the setting “rat, in vivo, iv, 0.5 mg/kg”, the Diastol. pressure is 14.0%, the Duration amounted to 90 min, the “Effect pressure/duration: duration” value was “↓/↓↓↓ (key: (↓): < 5 min; ↓: up to 10 min; ↓↓: up to 30 min; ↓↓↓: >30 min)” and the “Effect pressure/duration: pressure” value was “↓/↓↓↓ (key: →: no effect to 5%; (↓): to 10%; ↓: to 20%; ↓↓: to 30%; ↓↓↓: >30%)”. For the setting “rat, in vivo, iv, 0.5 mg/kg”, the Heart rate result is given as “→”, the Mean pressure is 13.7% and the Systol. pressure amounted to 13.1%.
With `CN1C[C@H](CN)C[C@@H]2c3cccc4[nH]cc(c34)C[C@H]21` [8β-Aminomethyl-6-methylergoline, reference compound], under setting [6], the “Effect pressure/duration: duration” value is “↓↓ (up to 30 min)”. Further, the “Effect pressure/duration: pressure” value under setting [7] is reported as “↓ (to 20%)”. Also, the Heart rate result under setting [8] is on record as “→”. Besides, under setting [9], the Duration is 30 min. Under setting [10], this molecule yielded a Diastol. pressure of 14.3%, a Mean pressure of 15.3% and a Systol. pressure of 16.4%.
Take `CC(C)[C@H]1C(=O)N2CCC[C@H]2[C@]2(O)O[C@](NC(=O)[C@@H]3C[C@@H]4c5cccc6[nH]cc(c56)C[C@H]4N(C)C3)(C(C)C)C(=O)N12` [Dihydroergocornine, reference compound]: the “Effect pressure/duration: duration” value under setting [6] is listed as “(↓) (< 5 min)”. Moreover, the “Effect pressure/duration: pressure” value under setting [7] is listed as “’”. The Heart rate result under setting [8] was “→”. Further, under setting [9], the Duration amounted to 3 min. Besides, under setting [10], the Diastol. pressure was 4.3%, the Mean pressure came out at 3.3% and the Systol. pressure is given as 5.0%.
As for `CN1CC(CNC(=O)CCCCC(=O)NC2CCC(N)CC2)CC2c3cccc4[nH]cc(c34)CC21.O=C(O)C(F)(F)F.O=C(O)C(F)(F)F` (stereo not drawn) [Substance 9703114], where the note is “rat, in vivo, iv, 0.5 mg/kg”, the Diastol. pressure was 20.7%, the Duration is reported as 40 min, the “Effect pressure/duration: duration” value was “↓↓/↓↓↓ (key: (↓): < 5 min; ↓: up to 10 min; ↓↓: up to 30 min; ↓↓↓: >30 min)” and the “Effect pressure/duration: pressure” value is reported as “↓↓/↓↓↓ (key: →: no effect to 5%; (↓): to 10%; ↓: to 20%; ↓↓: to 30%; ↓↓↓: >30%)”. Further, under “rat, in vivo, iv, 0.5 mg/kg”, the Heart rate result is given as “→”, the Mean pressure is given as 20.3% and the Systol. pressure was 18.8%.
Consider `Nc1cc(N2CCCCC2)nc(N)[n+]1[O-]` [Minoxidil, reference compound], for which the “Effect pressure/duration: duration” value under setting [6] is on record as “↓/↓ (up to 10 min)”. Further, the “Effect pressure/duration: pressure” value under setting [7] was “↓/↓ (to 20%)”. In addition, the Heart rate entry under setting [8] was “→”. Moreover, under setting [9], the Duration entry was “ca 10 min”. Under setting [10], this molecule yielded a Diastol. pressure of 8.1%, a Mean pressure of 7.1% and a Systol. pressure of 6.6%.
On to `CN1CC(CNC(=O)C2CCC(C(=O)NCCCN3CCN(CCCN)CC3)CC2)CC2c3cccc4[nH]cc(c34)CC21.O=C(O)C(F)(F)F.O=C(O)C(F)(F)F.O=C(O)C(F)(F)F.O=C(O)C(F)(F)F` (mixture of isomers) [Substance 9703133], for which, for the setting “rat, in vivo, iv, 0.5 mg/kg”, the Diastol. pressure is reported as 50.0%, the Duration entry is “ca 60 min”, the “Effect pressure/duration: duration” value is given as “↓↓↓/↓↓↓ (key: (↓): < 5 min; ↓: up to 10 min; ↓↓: up to 30 min; ↓↓↓: >30 min)” and the “Effect pressure/duration: pressure” value is given as “↓↓↓/↓↓↓ (key: →: no effect to 5%; (↓): to 10%; ↓: to 20%; ↓↓: to 30%; ↓↓↓: >30%)”. Moreover, where the note is “rat, in vivo, iv, 0.5 mg/kg”, the Heart rate entry is on record as “↑”, the Mean pressure came out at 45.4% and the Systol. pressure worked out at 48.4%.
With `CN1CC(CNC(=O)c2ccc(C(=O)NCC3CCCC(CN)C3)cc2)CC2c3cccc4[nH]cc(c34)CC21.O=C(O)C(F)(F)F.O=C(O)C(F)(F)F` (mixture of isomers) [Substance 9703127], the “Effect pressure/duration: duration” value under setting [6] is listed as “↓↓/↓↓ (up to 30 min)”. In addition, under setting [7], the “Effect pressure/duration: pressure” value was “↓↓/↓↓ (to 30%)”. Also, under setting [8], the Heart rate entry is “→”. The Duration under setting [9] was over 25 min. Under setting [10], this molecule yielded a Diastol. pressure of 29.0%, a Mean pressure of 27.2% and a Systol. pressure of 24.8%.
